US20100137313A1 (ASTRAZENECA AB, priority 2008, published 2010)

Target: S. pneumoniae Topoisomerase IV ATPase (ParE) (Streptococcus pneumoniae serotype 4, UniProt Q59961)
Assay: S. pneumoniae Topoisomerase IV ATPase inhibition
Type: biochemical
Conditions: values marked * are an average of two or more data points, read-out: % Inh (13 μM) of S. pneumoniae Topoisomerase IV ATPase
In short: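 Phosphate-release ATPase assay: 1.25 nM ParE, 160 μM ATP, DNA-stimulated. Quench with malachite green/molybdate in 1 M HCl, read 650 nm; IC50 from 10-point dose series.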

Sequence of S. pneumoniae Topoisomerase IV ATPase (ParE) (Q59961 whole entry): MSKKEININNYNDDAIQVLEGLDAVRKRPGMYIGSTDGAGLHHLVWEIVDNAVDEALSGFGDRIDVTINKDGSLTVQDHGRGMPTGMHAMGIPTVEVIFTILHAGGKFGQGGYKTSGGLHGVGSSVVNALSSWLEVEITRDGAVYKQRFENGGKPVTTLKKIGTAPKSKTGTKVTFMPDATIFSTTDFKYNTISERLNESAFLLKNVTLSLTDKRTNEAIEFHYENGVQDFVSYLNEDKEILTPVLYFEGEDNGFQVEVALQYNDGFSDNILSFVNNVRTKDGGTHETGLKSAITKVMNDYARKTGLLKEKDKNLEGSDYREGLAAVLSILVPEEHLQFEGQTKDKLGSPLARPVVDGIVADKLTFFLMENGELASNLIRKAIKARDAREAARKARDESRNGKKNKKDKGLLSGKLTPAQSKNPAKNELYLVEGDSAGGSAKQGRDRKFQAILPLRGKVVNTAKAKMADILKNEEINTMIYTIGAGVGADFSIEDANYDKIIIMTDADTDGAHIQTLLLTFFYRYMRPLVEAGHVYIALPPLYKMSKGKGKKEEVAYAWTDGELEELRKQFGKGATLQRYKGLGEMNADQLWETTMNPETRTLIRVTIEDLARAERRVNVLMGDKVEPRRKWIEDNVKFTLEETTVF

Compound	inhibition at 13 µM [%]
CC(C)(C)OC(=O)NCCCNc1nc(Nc2ccc(F)c(Cl)c2)ncc1-c1cncnc1 [Example 74, tert-butyl 3-(2-(3-chloro-4-fluorophenylamino)-5,5′-bipyrimidin-4-ylamino)propylcar-bamate]	103
CCOC(=O)c1cncc(-c2cnc(Nc3ccc(F)c(Cl)c3)nc2N2CCC(N3CCOCC3)CC2)c1 [Example 119, ethyl 5-[2-[(3-chloro-4-fluorophenyl)amino]-4-(4-morpholin-4-ylpiperidin-1-yl)pyrimidin-5-yl]pyridine-3-carboxylate]	32
O=C(O)C1CCN(c2cccc(-c3cnc(Nc4ccc(F)c(Cl)c4)nc3-n3ccc(C(F)(F)F)n3)c2)C1 (centres unmarked) [Example 604, 1-(3-{2-[(3-chloro-4-fluorophenyl)amino]-4-[3-(trifluoromethyl)-1H-pyrazol-1-yl]pyrimidin-5-yl}phenyl)pyrrolidine-3-carboxylic acid]	100
CC1(C)[C@@H](C(=O)O)[C@@H]1c1cccc(-c2cnc(Nc3ccc(F)c(Cl)c3)nc2-n2ccc(C(F)(F)F)n2)c1 [Example 572, (1,3-trans)-3-(3-(2-(3-chloro-4-fluorophenylamino)-4-(3-(trifluoromethyl)-1H-pyrazol-1-yl)pyrimidin-5-yl)phenyl)-2,2-dimethylcyclopropanecarboxylic acid]	100
O=C(O)/C=C/c1cccc(-c2cnc(Nc3cc(F)cc(Cl)c3)nc2N2CCOCC2)c1 [Example 409, (E)-3-{3-[2-(3-Chloro-5-fluoro-phenylamino)-4-morpholin-4-yl-pyrimidin-5-yl]-phenyl}-acrylic acid]	77
Cc1cc(C(F)(F)F)nn1-c1nc(Nc2ccc(F)c(Cl)c2)ncc1-c1cccc(/C=C/C(=O)O)c1 [Example 322, (2E)-3-(3-{2-[(3-chloro-4-fluorophenyl)amino]-4-[5-methyl-3-(trifluoromethyl)-1H-pyrazol-1-yl]pyrimidin-5-yl}phenyl)prop-2-enoic acid]	75
COc1cc(Nc2ncc(-c3cncc(C(=O)O)c3)c(N3CCOCC3)n2)cc(-n2nnnc2C)c1 [Example 445]	34
OCC1CCCN(c2nc(Nc3ccc(F)c(Cl)c3)ncc2-c2cncnc2)C1 (centres unmarked) [Example 61, [1-[2-[(3-chloro-4-fluorophenyl)amino]-5-pyrimidin-5-ylpyrimidin-4-yl]piperidin-3-yl]methanol]	74.8
COc1cc(Nc2ncc(-c3cnc(OC)c(C(=O)NS(=O)(=O)CC(F)(F)F)c3)c(-n3nc(C(F)(F)F)cc3C)n2)cc(OC)c1 [Example 835, 5-{2-[(3,5-dimethoxyphenyl)amino]-4-[5-methyl-3-(trifluoromethyl)-1H-pyrazol-1-yl]pyrimidin-5-yl}-2-methoxy-N-[(2,2,2-trifluoroethyl)sulfonyl]pyridine-3-carboxamide]	95
COc1cc(Nc2ncc(-c3cnc(OC)c(C#N)c3)c(-n3nc(C(F)(F)F)cc3C)n2)cc(OC)c1 [Example 868, 5-(2-(3,5-dimethoxyphenylamino)-4-(5-methyl-3-(trifluoromethyl)-1H-pyrazol-1-yl)pyrimidin-5-yl)-2-methoxynicotinonitrile]	6
Cc1cc(C(F)(F)F)nn1-c1nc(Nc2ccc(F)c(Cl)c2)ncc1-c1cncc(C(=O)NCCO)c1 [Example 927, 5-(2-(3-chloro-4-fluorophenylamino)-4-(5-methyl-3-(trifluoromethyl)-1H-pyrazol-1-yl)pyrimidin-5-yl)-N-(2-hydroxyethyl)nicotinamide]	98
COCCCNc1nc(Nc2ccc(F)c(Cl)c2)ncc1-c1cncc(C(=O)O)c1 [Example 277, 5-(2-(3-chloro-4-fluorophenylamino)-4-(3-methoxypropylamino)-pyrimidin-5-yl)nicotinic acid]	85.9
Fc1ccc(Nc2ncc(-c3cncnc3)c(-n3ccc(C(F)(F)F)n3)n2)cc1Cl [Example 71, N-(3-chloro-4-fluorophenyl)-4-[3-(trifluoromethyl)-1H-pyrazol-1-yl]-5,5′-bipyrimidin-2-amine]	66.7
CNC(=O)C1CCN(c2nc(Nc3ccc(F)c(Cl)c3)ncc2-c2cncnc2)CC1 [Example 63, 1-[2-[(3-chloro-4-fluorophenyl)amino]-5-pyrimidin-5-ylpyrimidin-4-yl]-N-methylpiperidine-4-carboxamide]	69.9
NC(=O)c1cncc(-c2cnc(Nc3ccc(F)c(Cl)c3)nc2-n2ccc(C(F)(F)F)n2)c1 [Example 1124, 5-[2-[(3-chloro-4-fluorophenyl)amino]-4-[3-(trifluoromethyl)pyrazol-1-yl]pyrimidin-5-yl]pyridine-3-carboxamide]	42
COc1cc(Nc2ncc(-c3cnc(OC)c(-c4n[nH]c(=O)o4)c3)c(-n3nc(C(F)(F)F)cc3C)n2)cc(OC)c1 [Example 805, 5-(5-{2-[(3,5-dimethoxyphenyl)amino]-4-[5-methyl-3-(trifluoromethyl)-1H-pyrazol-1-yl]pyrimidin-5-yl}-2-methoxypyridin-3-yl)-1,3,4-oxadiazol-2(3H)-one]	100
Cc1cc(C(F)(F)F)nn1-c1nc(Nc2ccc(F)c(Cl)c2)ncc1-c1cnc(OCCS(C)(=O)=O)c(C(=O)O)c1 [Example 956, 5-(2-(3-chloro-4-fluorophenylamino)-4-(5-methyl-3-(trifluoromethyl)-1H-pyrazol-1-yl)pyrimidin-5-yl)-2-(2-(methylsulfonyl)ethoxy)nicotinic acid]	100
COCCn1cc(C(=O)O)c(=O)c2cc(-c3cnc(Nc4ccc(F)c(Cl)c4)nc3NCCCN(C)C)ccc21 [Example 1057, 6-(2-(3-Chloro-4-fluorophenylamino)-4-(3-(dimethylamino)propylamino)pyrimidin-5-yl)-1-(2-methoxyethyl)-4-oxo-1,4-dihydroquinoline-3-carboxylic acid]	83
COCC(COC)Oc1ncc(-c2cnc(Nc3ccc(F)c(Cl)c3)nc2-n2ccc(C(F)(F)F)n2)cc1C(=O)O [Example 869, 5-(2-(3-chloro-4-fluorophenylamino)-4-(3-(trifluoromethyl)-1H-pyrazol-1-yl)pyrimidin-5-yl)-2-(1,3-dimethoxypropan-2-yloxy)nicotinic acid]	93
CCOC(=O)c1cncc(-c2cnc(Nc3ccc(F)c(Cl)c3)nc2NCCN2CCS(=O)(=O)CC2)c1 [Example 104, 5-{2-(3-Chloro-4-fluoro-phenylamino)-4-[2-(1,1-dioxo-1λ^6-thiomorpholin-4-yl)-ethylamino]-pyrimidin-5-yl}-nicotinic acid ethyl ester]	76.2
COc1cc(C)cc(Nc2ncc(-c3cnc(OC)c(C(=O)O)c3)c(-n3ccc(C(F)(F)F)n3)n2)c1 [Example 760]	100
COc1cc(Nc2ncc(-c3cncnc3)c(NCCCN(C)C)n2)cc(OC)c1 [Example 344, N^2-(3,5-dimethoxyphenyl)-N^4-(3-(dimethylamino)propyl)-5,5′-bi pyrimidin-2,4-diamine]	82
CN1CCN(CCOc2ncc(-c3cnc(Nc4ccc(F)c(Cl)c4)nc3-n3ccc(C(F)(F)F)n3)cc2C(=O)O)CC1 [Example 962, 5-(2-(3-chloro-4-fluorophenylamino)-4-(3-(trifluoromethyl)-1H-pyrazol-1-yl)pyrimidin-5-yl)-2-(2-(4-methylpiperazin-1-yl)ethoxy)nicotinic acid]	98
